The record followed here is patent US5538968A, “Geneserine derivatives processes as cholinesterase inhibitors” (priority 1991, dated 1996).

The subject of the experiment is acetylcholinesterase (AchE) in the brain. Nature of the experiment: Time course of inhibition of brain acetylcholinesterase (AchE) in the rat after s.c. administration (Ellman acetylthiocholine method, ex vivo). Further details: species or system rat (male Crl:CD (SD) BR). The following applies: for Time of peak effect on brain AchE: at doses producing effects comparable to 9 mg/kg CHF 2060. Here is the method: 1. Acetylcholinesterase inhibition
The time course of inhibition of acetylcholinesterase (AchE) in the brain was assessed in male Crl:CD (SD) BR rats (Charles River Italia), weighing between 150-250 g.
The test substances were administered by s.c. route, dissolved in 2 ml/kg of sterile saline. 9 animals/group/time were used.
Controls received the vehicle only.
At various intervals (10-60-120-240 min) after administration the rats were sacrificed by decapitation and the brains were rapidly removed, weighed and immediately placed in 1 ml of phosphate buffer 0.1M, pH 8.0, added with 1% Triton 100 (Merck).
After homogenization and centrifugation at 19943 g for 15 min at 4° C. the surnatant was separated and used for the determination of AchE activity according to the acetyltiocholine method described by Ellmann (Ellman G. L. et al., Biochem. Pharmacol. 7, 88, 1961).
The activity concentrations obtained (U/l surnatant) were individually corrected for the brain weight.
Background: In Ellman's method for cholinesterases, released thiocholine reacts with DTNB.

Structures can show the parent of a compound that is named as a salt.

For the compound `CCCCCCCNC(=O)Oc1ccc2c(c1)[C@]1(C)CCN(C)[C@@H]1N2C` [Heptyl physostigmine tartrate], the “AUC 0-4 h of inhibition of brain acetylcholinesterase” value runs as follows: (0.3 mg/kg s.c.) 94 % inib. hr; (1 mg/kg s.c.) 178 % inib. hr. The “Max % inhib. of brain acetylcholinesterase” value (1 mg/kg s.c.) worked out at 54%. In addition, where the note is “1 mg/kg s.c.”, the “T max (time of the maximal inhibition)” value was 1 h. In addition, the “Factor of reduction of effect between 120 and 240 min” value (1 mg/kg s.c., 120 to 240 min) is recorded as 1.4. Moreover, the “Brain acetylcholinesterase activity, U/1 surn.” value by setting is: (1 mg/kg s.c., 10 min) 2246 ± 115 U/1 surn; (1 mg/kg s.c., 60 min) 1166 ± 85 U/1 surn; (1 mg/kg s.c., 120 min) 1506 ± 115 U/1 surn; (1 mg/kg s.c., 240 min) 1867 ± 52 U/1 surn. Also, the “Brain acetylcholinesterase % inhib.” value reads like this: (1 mg/kg s.c., 10 min, ** P < 0.01) 29%; (1 mg/kg s.c., 60 min, ** P < 0.01) 54%; (1 mg/kg s.c., 120 min, ** P < 0.01) 52%; (1 mg/kg s.c., 240 min, ** P < 0.01) 36%.

`CCCCCCCNC(=O)Oc1ccc2c(c1)C1(C)CCN(C)OC1N2C` [CHF 2060, N-heptyl-geneserine L-tartrate]: the “AUC 0-4 h of inhibition of brain acetylcholinesterase” value by setting is: (9 mg/kg s.c.) 127 % inib. hr; (27 mg/kg s.c.) 190 % inib. hr. In addition, the “Max % inhib. of brain acetylcholinesterase” value reads like this: (9 mg/kg s.c.) 45%; (27 mg/kg s.c.) 68%. The “T max (time of the maximal inhibition)” value runs as follows: (9 mg/kg s.c.) at least 4 h; (27 mg/kg s.c.) at least 4 h. Moreover, the “Brain acetylcholinesterase % inhib.” value reads like this: (9 mg/kg s.c., 10 min) 11%; (9 mg/kg s.c., 60 min, ** P < 0.01) 29%; (9 mg/kg s.c., 120 min, ** P < 0.01) 33%; (9 mg/kg s.c., 240 min, ** P < 0.01) 45%; (27 mg/kg s.c., 10 min) 12%; (27 mg/kg s.c., 60 min, ** P < 0.01) 45%. Further, the “Brain acetylcholinesterase % inhib.” value reads like this: (27 mg/kg s.c., 120 min, ** P < 0.01) 50%; (27 mg/kg s.c., 240 min, ** P < 0.01) 68%. Also, the “Brain acetylcholinesterase activity, U/1 surn.” value reads like this: (9 mg/kg s.c., 10 min) 3094 ± 197 U/1 surn; (9 mg/kg s.c., 60 min) 2294 ± 150 U/1 surn; (9 mg/kg s.c., 120 min) 2205 ± 171 U/1 surn; (9 mg/kg s.c., 240 min) 1565 ± 80 U/1 surn; (27 mg/kg s.c., 10 min) 3070 ± 117 U/1 surn; (27 mg/kg s.c., 60 min) 1782 ± 164 U/1 surn. Besides, the “Brain acetylcholinesterase activity, U/1 surn.” value is, setting by setting: (27 mg/kg s.c., 120 min) 1629 ± 38 U/1 surn; (27 mg/kg s.c., 240 min) 914 ± 26 U/1 surn. In addition, the “Factor of increase of effect between 120 and 240 min” value (27 mg/kg s.c., 120 to 240 min) was 1.4. In addition, where the note is “s.c.”, the “Inhibition of brain AchE (qualitative)” value was “long-lasting inhibitor of brain AchE”. Besides, under “s.c., 0-4 hrs”, the “Course of effect during the 4 hrs following the treatment” value is reported as “increase gradually during the 4 hrs following the treatment”. Moreover, under “s.c., 27 mg/kg vs 1 mg/kg HPYS, similar AUC”, the “Duration of action compared with Heptyl physostigmine tartrate” value is “more sustained action”. Where the note is “s.c., 1 hr after administration (9 and 27 mg/kg), P<0,001”, the “Significant inhibition of brain AchE” value is reported as 29-45%. In addition, the “Factor of increase of effect within 4 hrs in respect to the first hour” value (s.c., 4 hrs vs 1 hr (9 and 27 mg/kg)) is given as 1.5-1.6.

Regarding `CNC(=O)Oc1ccc2c(c1)C1(C)CCN(C)OC1N2C` (stereo not drawn) [Geneserine tartrate], the “AUC 0-4 h of inhibition of brain acetylcholinesterase” value (3 mg/kg s.c.) came out at 133 % inib. hr. Moreover, where the note is “3 mg/kg s.c.”, the “Max % inhib. of brain acetylcholinesterase” value is listed as 53-57%. In addition, where the note is “3 mg/kg s.c.”, the “T max (time of the maximal inhibition)” value is 0.167 to 1 h. Further, the “Brain acetylcholinesterase activity, U/1 surn.” value (3 mg/kg s.c., 10 min) is listed as 1447 ± 100 U/1 surn; the “Brain acetylcholinesterase activity, U/1 surn.” value (3 mg/kg s.c., 60 min) is listed as 1231 ± 86 U/1 surn; the “Brain acetylcholinesterase activity, U/1 surn.” value (3 mg/kg s.c., 120 min) came out at 2162 ± 134 U/1 surn; the “Brain acetylcholinesterase activity, U/1 surn.” value (3 mg/kg s.c., 240 min) was 2139 ± 208 U/1 surn. The “Brain acetylcholinesterase % inhib.” value is, setting by setting: (3 mg/kg s.c., 10 min, ** P < 0.01) 53%; (3 mg/kg s.c., 60 min, ** P < 0.01) 57%; (3 mg/kg s.c., 120 min, ** P < 0.01) 28%; (3 mg/kg s.c., 240 min) 12%. The “Factor of reduction of effect 120 min. after the treatment” value (s.c., 120 min vs peak) was 1.5-2. The “Effect on brain AchE after 240 min.” value (s.c.) was “disappears after 240 min”. In addition, the “Time of peak effect on brain AchE” value (s.c.) lay within 10 to 60 min. Moreover, the “Onset of effect compared with CHF 2060” value (s.c., vs 9 mg/kg CHF 2060, comparable AUC and maximum inhibition) is listed as “more rapid effect”.

For `CNC(=O)Oc1ccc2c(c1)[C@]1(C)CCN(C)[C@@H]1N2C` [Physostigmine], where the note is “0.4 mg/kg s.c.”, the “AUC 0-4 h of inhibition of brain acetylcholinesterase” value is given as 135 % inib. hr. Moreover, the “Brain acetylcholinesterase activity, U/1 surn.” value by setting is: (0.4 mg/kg s.c., 10 min) 1368 ± 125 U/1 surn; (0.4 mg/kg s.c., 60 min) 1483 ± 148 U/1 surn; (0.4 mg/kg s.c., 120 min) 1829 ± 94 U/1 surn; (0.4 mg/kg s.c., 240 min) 2234 ± 151 U/1 surn. Also, the “Effect on brain AchE after 240 min.” value (s.c.) is reported as “disappears after 240 min”. The “Time of peak effect on brain AchE” value (s.c.) fell in the range of 10 to 60 min.
